Measurements reported in patent EP0013144A1, “Substituted diphenylamine derivatives, compositions and herbicidal uses thereof, and processes for their preparation” (ICI AUSTRALIA LIMITED, priority 1978, dated 1980).

Columns and labels:
Format in all cases: in vivo
Ryegrass [1] = assay: Pre-emergence herbicidal activity (Example 31); set-up: key: 0-3 scale: 0 = 0-25% damage, 3 = 75-99% kill, 3+ = 100% kill; details: after three weeks
Summary of the method: (§1)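 Visual damage score at three weeks: 0 = 0–25% damage, 3 = 75–99% kill, 3+ = 100% kill. Soil boxes with seeds sown 2 cm deep were sprayed before emergence with water-diluted emulsifiable concentrate or suspension, then grown in a glasshouse alongside unsprayed controls.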

Ipomea [2] = assay: Pre-emergence herbicidal activity (Example 31); details: after three weeks
Summary of the method: as §1

Japanese millet [3] = assay: Pre-emergence herbicidal activity (Example 31); details: after three weeks
Summary of the method: as §1

Mustard [4] = assay: Pre-emergence herbicidal activity (Example 31); details: after three weeks
Summary of the method: as §1

Sunflower [5] = assay: Pre-emergence herbicidal activity (Example 31); details: after three weeks
Summary of the method: as §1

Ipomea [6] = assay: Post-emergence herbicidal activity (Example 32); details: 3 weeks after spraying
Summary of the method: (§2)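 Glasshouse-grown seedlings reaching roughly 10–12.5 cm height were sprayed with water-diluted formulations, either toluene-based emulsifiable concentrates or ball-milled suspensions. After a further 3 weeks, injury was scored by eye against untreated plants: 0 = 0–25% damage, 3 = 75–99% kill, 3+ = complete kill.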

Japanese millet [7] = assay: Post-emergence herbicidal activity (Example 32); details: 3 weeks after spraying
Summary of the method: as §2

Mustard [8] = assay: Post-emergence herbicidal activity (Example 32); details: 3 weeks after spraying
Summary of the method: as §2

Ryegrass [9] = assay: Post-emergence herbicidal activity (Example 32); details: 3 weeks after spraying
Summary of the method: as §2

Sunflower [10] = assay: Post-emergence herbicidal activity (Example 32); details: 3 weeks after spraying
Summary of the method: as §2

Maize [11] = assay: Pre-emergence herbicidal test, fibre trays (Example 33); set-up: key: 0 = 0-20% damage, 5 = complete kill, vs untreated control; details: 2.0 kg/ha, after 21 days
Summary of the method: (§3)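 Seeds for the pre-emergence test were sown in a shallow slit in fibre-tray soil; the levelled surface was sprayed and thinly covered with fresh soil, with damage rated after 21 days. Young pot plants were sprayed for the post-emergence test and rated after 14 days, on a 0–5 scale where 5 = complete kill.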

Rice [12] = assay: as above; details: 2.0 kg/ha, after 21 days
Summary of the method: as §3

Cotton = assay: as above; details: 2.0 kg/ha, after 21 days
Summary of the method: as §3

Ipomea purpurea = assay: as above; details: 2.0 kg/ha, after 21 days
Summary of the method: as §3

Rape = assay: as above; details: 2.0 kg/ha, after 21 days
Summary of the method: as §3

Senecio vulgaris = assay: as above; details: 2.0 kg/ha, after 21 days
Summary of the method: as §3

Soy bean = assay: as above; details: 2.0 kg/ha, after 21 days
Summary of the method: as §3

Sugar beet = assay: as above; details: 2.0 kg/ha, after 21 days
Summary of the method: as §3

Winter wheat = assay: as above; details: 2.0 kg/ha, after 21 days
Summary of the method: as §3

Maize [13] = assay: Post-emergence herbicidal test, young pot plants (Example 33); set-up: key: 0 is 0 to 20% damage; 5 is complete kill; details: 2.0 kg/ha, after 14 days
Summary of the method: as §3

Rice [14] = assay: as above; set-up: key: 0 is 0 to 20% damage; 5 is complete kill; details: 2.0 kg/ha, after 14 days
Summary of the method: as §3

Row | Compound | damage to plants, Rg (Ryegrass [1]; 1 kg/ha) | damage to plants, Rg (Ryegrass [1]; 5 kg/ha) | damage to plants, Ip (Ipomea [2]; 1 kg/ha) | damage to plants, Ip (Ipomea [2]; 5 kg/ha) | damage to plants, Jm (Japanese millet [3]; 1 kg/ha) | damage to plants, Jm (Japanese millet [3]; 5 kg/ha) | damage to plants, Ms (Mustard [4]; 1 kg/ha) | damage to plants, Ms (Mustard [4]; 5 kg/ha) | damage to plants, Sf (Sunflower [5]; 1 kg/ha) | damage to plants, Sf (Sunflower [5]; 5 kg/ha) | damage to plants, Ip (Ipomea [6]; 1 kg/ha) | damage to plants, Ip (Ipomea [6]; 5 kg/ha) | damage to plants, Jm (Japanese millet [7]; 1 kg/ha) | damage to plants, Jm (Japanese millet [7]; 5 kg/ha) | damage to plants, Ms (Mustard [8]; 1 kg/ha) | damage to plants, Ms (Mustard [8]; 5 kg/ha) | damage to plants, Rg (Ryegrass [9]; 1 kg/ha) | damage to plants, Rg (Ryegrass [9]; 5 kg/ha) | damage to plants, Sf (Sunflower [10]; 1 kg/ha) | damage to plants, Sf (Sunflower [10]; 5 kg/ha) | further results
1 | COC(=O)C(C)Oc1ccc(Nc2ccc(Br)cc2[N+](=O)[O-])cc1 (centres unmarked) [Compound 29] | 2 | 3 (3 represents 75 to 99% kill) | 0 (0 represents from 0 to 25% damage) | 0 (0 represents from 0 to 25% damage) | 2 | 3 (3 represents 75 to 99% kill) | 0 (0 represents from 0 to 25% damage) | 0 (0 represents from 0 to 25% damage) | 0 (0 represents from 0 to 25% damage) | 0 (0 represents from 0 to 25% damage) | 0 (0 represents 0 to 25% damage) | 0 (0 represents 0 to 25% damage) | 3 (3 represents 75 to 99% kill) | 3+ (3+ represents 100% kill) | 0 (0 represents 0 to 25% damage) | 0 (0 represents 0 to 25% damage) | 3 (3 represents 75 to 99% kill) | 3+ (3+ represents 100% kill) | 0 (0 represents 0 to 25% damage) | 0 (0 represents 0 to 25% damage) | herbicidal damage, Mz (Maize [11]): 1; herbicidal damage, Rc (Rice [12]): 3; herbicidal damage, Ct (Cotton): 0 (0 is 0 to 20% damage); herbicidal damage, Ip (Ipomea purpurea): 0 (0 is 0 to 20% damage); herbicidal damage, Rp (Rape): 0 (0 is 0 to 20% damage); herbicidal damage, Sn (Senecio vulgaris): 3; herbicidal damage, Sy (Soy bean): 0 (0 is 0 to 20% damage); herbicidal damage, Sb (Sugar beet): 0 (0 is 0 to 20% damage); herbicidal damage, Ww (Winter wheat): 3; damage to test plants, Mz (Maize [13]): 5; damage to test plants, Rc (Rice [14]): 5
2 | C#CCN(c1ccc(OC(C)C(=O)OC)cc1)c1ccc(C(F)(F)F)cc1[N+](=O)[O-] (centres unmarked) [Compound 81] | 3 (3 represents 75 to 99% kill) | 3+ (3+ represents 100% kill) | 0 (0 represents from 0 to 25% damage) | 0 (0 represents from 0 to 25% damage) | 3+ (3+ represents 100% kill) | 3+ (3+ represents 100% kill) | 0 (0 represents from 0 to 25% damage) | 0 (0 represents from 0 to 25% damage) | 0 (0 represents from 0 to 25% damage) | 0 (0 represents from 0 to 25% damage) | 0 (0 represents 0 to 25% damage) | 0 (0 represents 0 to 25% damage) | 3+ (3+ represents 100% kill) | 3+ (3+ represents 100% kill) | 0 (0 represents 0 to 25% damage) | 0 (0 represents 0 to 25% damage) | 3 (3 represents 75 to 99% kill) | 3+ (3+ represents 100% kill) | 0 (0 represents 0 to 25% damage) | 0 (0 represents 0 to 25% damage) | herbicidal damage, Mz (Maize [11]): 3; herbicidal damage, Rc (Rice [12]): 4; herbicidal damage, Ct (Cotton): 0 (0 is 0 to 20% damage); herbicidal damage, Ip (Ipomea purpurea): 0 (0 is 0 to 20% damage); herbicidal damage, Rp (Rape): 0 (0 is 0 to 20% damage); herbicidal damage, Sn (Senecio vulgaris): 0 (0 is 0 to 20% damage); herbicidal damage, Sy (Soy bean): 0 (0 is 0 to 20% damage); herbicidal damage, Sb (Sugar beet): 0 (0 is 0 to 20% damage); herbicidal damage, Ww (Winter wheat): 4; damage to test plants, Mz (Maize [13]): 4; damage to test plants, Rc (Rice [14]): 4
